Non-standard residues stand in square brackets, D forms with d. No end group written: not given here. pY = N[C@@H](Cc1ccc(OP(=O)(O)O)cc1)C(=O)O
Tests used:
[1] = tested on: PI3K activity measured as Akt phosphorylation; assay: Akt phosphorylation (Western blot) after peptide transfection; assay type: cell-based, human
Experimental: (§1) Peptide transfection. In order to inhibit the p85 and ErbB3 interaction, MCF7, BT474 and MDA-MB-453 cell lines have been transfected using 80, 100, and 180 μg, respectively, of the following phosphopeptides:
(§2) Treatments and lmmunodecorations. […] Briefly the cells have been plated at 5×10^5 concentration in 60 mm plates. […] At the end of the treatment the cells have been lysed with RIPA buffer [150 mM NaCl, 1% NP-40, 0,5% sodium deoxycholate (DOC), 0.1% SDS, 50 mM TrisHCl (pH 8), 1 mM PMSF, 1 mM EGTA, 50 mM NaF, 50 mM Na3VO4 and protease inhibitors (Roche, Milano, IT)] in order to analyze the expression levels of phosphorylated and total ErbB-3, ErbB-2, ERK and HSP-70 proteins. In order to analyze the levels of Akt phosphorylation and expression, the cells have been lysed in NP-40 buffer [1% NP-40, 10% glycerol, 137 mM NaCl, 20 mM TrisHCl (pH 7.4), 50 mM NaF, 1 mM PMSF, 5 mM Na3VO4, protease inhibitors (Roche, Milano, IT)]. Cell lysates have been incubated on ice for 20 minutes and centrifuged at 14000 rpm for 20 minutes. RIPA buffer obtained cell extracts have been boiled for 5 minutes at 95° C., while NP40 buffer lysed samples have been boiled at 65° C. for 5 minutes. Samples have been subjected to SDS-PAGE and transferred on nitrocellulose filters (Bio-Rad, Milan, IT). Then the filters have been incubated with interest antibodies, washed and incubated with specific secondary horse radish peroxidase (HRP) conjugated antibodies. After thorough washing, nitrocellulose peroxidase activity has been detected by chemiluminescence (Lite-blot-Euroclone, Milano, IT)

[2] = tested on: MAPK phosphorylation; assay: MAPK (ERK1/2) phosphorylation (Western blot) after peptide transfection; assay type: cell-based, human; conditions: MCF7, BT474 and MDA-MB-453 cells (FIG. 4A); Herceptin where combined
Experimental: as §1
as §2, with “Samples have been subjected to SDS-PAGE and transferred on nitrocellulose filters (Bio-Rad, Milan, IT). Then the filters have been incubated with interest antibodies, washed and incubated with specific secondary horse radish peroxidase (HRP) conjugated antibodies.” left out

[3] = biological target: T1, HER3 binding to GST-N-SH2p85 fusion protein (Homo sapiens, UniProt P27986); assay: GST pull-down; conditions: lysates of BT474, MCF7 and MDA-MB-453 cells, in vitro (FIG. 2A, FIG. 3)
T1 construct: containing SH2 domains in N-terminal portion of p85 sub-unit
Experimental: GST pull-down. MCF-7, BT474 and MDA-MB-453 cell lines have been washed 2 times with cold PBS and extracted with lysis buffer [(50 mM Tris HCl (pH 7.4), 250 mM NaCl, 0,1% Triton X-100, 5 mM EDTA, 50 mM NaF, 1 mM PMSF, 5 mM Na3VO4 and 50 mmol/L of protease inhibitors (Roche, Milano, IT)]. After 20 minute ice-cold incubation, the lysates have been clarified by centrifugation at 14000 rpm for 20 minutes. The cellular extracts (1 mg sample) have been incubated for 4 hours at 4° C. in the presence of GST bound gluthatione-agarose beads or GST-p85 fusion protein (kindly supplied by doctor S. Giordano), in the presence or absence of 1257 phosphopeptide or scr peptide used as control. Then the interaction complexes have been washed six times with lysis buffer and subsequently beads eluted using Laemli Buffer 2× [(140 mM SDS, 432 mM Glycerol, 1.6 mM Bromophenol blue, 120 mM Tris HCl (pH 6.8), 8% β-mercaptoethanol)]. The proteins have been separated using 8% SDS-PAGE and transferred on nitrocellulose filter. The filter has been then immunodecorated with anti ErbB3 antibody.
As in FIG. 2A is apparent that 1257 phosphopeptide effectively in vitro binds p85 sub-unit thus inhibiting HER3 receptor binding.

[4] = tested on: MCF7/Luc cells; assay: In vivo growth of peptide-transfected MCF7/Luc cells inoculated s.c.; design: species or system SCID mice; conditions: s.c. inoculation of transfected MCF7 cells
Experimental: Xeno-grafts. In vivo tests have been carried out using 40 day old SCID female mice (Harlan Laboratories, Milan, IT). At day 0, animals have been totally anesthetized with intramuscular injection of 400 μg/animal (average weight 25 g) of Zoletil (Virbac) containing 0.12% Xylor (Xylazine), and transplanted subcutaneously (s.c.), in intrascapular mouse region with pellet of […] (1.7 mg/sustained release pellet over 60 days, Innovative Research of America, Sarasota, Fla.). On the next day, 5×10^6 proliferating and scr and 1257 peptide previously transfected, as above described, MCF7 or BT474 cells, have been re-suspended in 0.1 ml of Matrigel (BD Biosciences) and subcutaneously inoculated in each mouse. […] Tumour growth has been monitored two times weekly using calibration along two orthogonal axes: length (L) and […]. The tumour volume (V) has been calculated using the formula V=L*(W2)/2. All the procedures relating to animals and treatment thereof have been carried out according institutional guidelines.
Generation of mammary tumour luminescent cells. Mammary tumour MCF7 cell lines stably transfected using pGL4.51 (luc2/CMV/Neo) expression vector, produced by Promega (Me, IT), have been transfected using scr or 1257 phosphopeptide ([…]×5×10^4 cells/mouse) and after 30 h subcutaneously inoculated in SCID mice (5×10^6 cells/mouse) in 200 μl (1:1 Matrigel: cell suspension in serum free medium). Mice have been in vivo imaged 20′ after inoculation and once weekly over 11 weeks. The animals have been anesthetized, as above reported, and subjected to intraperitoneal injection with 200 μl of luciferin (Caliper, Mi, IT); 10′ after incubation photon emission has been analyzed at 3′ minute exposure using Xenogen Ivis Lumina 2 machine. Growth of these cells has been monitored as reported in xenografts section.
Then it has been verified whether 1257 phosphopeptide was effective also in vivo. To this purpose immunocompromised SCID mice have been used. In the presence of oestrogen tablets, 5×10^6 control cells transfected with scr peptide or transfected with 1257 peptide have been injected subcutaneously between mouse scapulae. In order to verify the viability of phosphopeptide transfected cells in animals we have generated a stable luciferase gene expressing MCF7 cell line (MCF7/Luc).

[5] = biological target: p85 (Homo sapiens, UniProt P27986); conditions: binding to p85; cited from earlier work
Chain of p85 (P27986 whole entry): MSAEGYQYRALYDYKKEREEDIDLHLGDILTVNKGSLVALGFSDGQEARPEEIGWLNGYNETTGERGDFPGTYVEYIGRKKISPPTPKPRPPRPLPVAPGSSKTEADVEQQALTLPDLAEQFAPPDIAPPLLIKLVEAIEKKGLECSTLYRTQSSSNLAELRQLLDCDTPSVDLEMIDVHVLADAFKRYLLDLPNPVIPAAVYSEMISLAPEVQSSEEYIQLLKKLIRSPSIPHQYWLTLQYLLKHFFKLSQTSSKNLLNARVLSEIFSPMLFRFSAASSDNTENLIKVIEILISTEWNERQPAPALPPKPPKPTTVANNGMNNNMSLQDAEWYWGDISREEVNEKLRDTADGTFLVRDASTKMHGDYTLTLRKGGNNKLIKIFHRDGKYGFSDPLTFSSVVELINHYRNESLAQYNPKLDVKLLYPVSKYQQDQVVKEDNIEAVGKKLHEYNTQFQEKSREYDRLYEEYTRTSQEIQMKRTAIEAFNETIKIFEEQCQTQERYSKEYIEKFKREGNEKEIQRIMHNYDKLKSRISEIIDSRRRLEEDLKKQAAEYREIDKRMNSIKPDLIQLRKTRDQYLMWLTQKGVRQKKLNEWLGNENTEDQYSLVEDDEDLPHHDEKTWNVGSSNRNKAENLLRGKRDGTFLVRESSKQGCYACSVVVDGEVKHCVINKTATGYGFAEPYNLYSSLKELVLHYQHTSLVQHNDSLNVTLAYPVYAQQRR

T1 sequence (P27986 333-428 limits assumed): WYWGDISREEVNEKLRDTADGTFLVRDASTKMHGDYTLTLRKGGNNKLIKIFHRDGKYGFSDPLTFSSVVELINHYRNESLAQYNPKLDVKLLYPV

Substance	phosphorylation of Akt ([1]; MCF7, BT474 and MDA-MB-453 cells (FIG. 4A), Herceptin where combined)	MAPK phosphorylation [2]	inhibition of HER3 and p85 SH2 domain binding [3]	time after inoculation at which tumours were calibratable [4]	tumour take ([4]; SCID mice) [%]	inhibition of Akt phosphorylation ([1]; MCF7 cells, 48 hr after Lipofectamine transfection (FIG. 3))	association constant (Ka) [5]	inhibition of PI3K activity measured as inhibition level of Akt phosphorylation ([1]; MCF7 cells, peptide transfection at different doses (FIG. 12))
PYQMRpYNADTDGERTTEP (PYQMR[pY]NADTDGERTTEP) [scr phosphopeptide, scramble (scr), i.e. not specific, phosphopeptide used as control, reference compound]	does not result in any effect	does not result in any effect	the binding is as efficient as in the absence of peptide	three	100	–	–	–
not phosphorylated 1257 peptide: Not phosphorylated 1257 peptide used as further negative control (RDGGGPGGDYAAMGACPA; not fully specified) [reference compound]	–	–	does not inhibit p85 and ErbB-3 binding	–	–	unable to inhibit Akt phosphorylation	–	–
PTAGTTPDEDpYEYMNRQR (PTAGTTPDED[pY]EYMNRQR; listed as Homo sapiens) [1241 phosphopeptide, second HER3-derived phosphopeptide used for preliminary experiments, reference compound]	–	–	–	–	–	–	824	not suitable to remarkably inhibit PI3K activity

Reference: patent publication US20130259929A1, “USE OF A PHOSPHOPEPTIDE ABLE TO BLOCK HER3/P85 INTERACTION FOR THE TREATMENT OF HER2 HYPER-EXPRESSING TUMOURS” (priority 2010, published 2013)
